The source of these data is PubChem BioAssay AID330 (DTP/NCI, 2004).

Several values for one entry are separate records, joined by “and”; a condition that tells them apart may be missing. Identical values can stand only once. Toxic doses and inconclusive results are not listed.

The test system of the assay is P388 leukemia ip, CD2F1 mice, survival T/C. As to the kind of experiment: NCI In Vivo Anticancer Drug Screen. Data for tumor model P388 Leukemia (intraperitoneal) in CD2F1 (CDF1) mice. The settings on record: endpoint: median survival time, higher = longer survival. A digest of the protocol:
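Mice carrying the transplanted tumor received test compound or vehicle. Survival was recorded in each group, and the value is the treated-group measurement divided by that of the vehicle-treated control group.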

The mark [1] stands for this setting: dose: 12.5 mg/kg/injection, schedule: Q01DX009 (ip), vehicle: saline with Tween-80.
Where [2] appears, read: dose: 25.0 mg/kg/injection, schedule: Q01DX009 (ip), vehicle: saline with Tween-80.
Where [3] appears, read: dose: 60.0 mg/kg/injection, schedule: Q01DX005 (ip), vehicle: saline with Tween-80.
[4] abbreviates: dose: 120.0 mg/kg/injection, schedule: Q01DX005 (ip), vehicle: saline with Tween-80.
Where [5] appears, read: dose: 240.0 mg/kg/injection, schedule: Q01DX005 (ip), vehicle: saline with Tween-80.
[6] abbreviates: dose: 50.0 mg/kg/injection, schedule: Q01DX005 (ip), vehicle: saline with Tween-80.
Where [7] appears, read: dose: 100.0 mg/kg/injection, schedule: Q01DX005 (ip), vehicle: saline with Tween-80.
[8] abbreviates: dose: 200.0 mg/kg/injection, schedule: Q01DX005 (ip), vehicle: saline with Tween-80.
Setting [9] is: dose: 50.0 mg/kg/injection, schedule: Q01DX009 (ip), vehicle: saline with Tween-80.
Setting [10] is: dose: 100.0 mg/kg/injection, schedule: Q01DX009 (ip), vehicle: Klucel (hydroxypropylcellulose) (HPC).
Setting [11] is: dose: 200.0 mg/kg/injection, schedule: Q01DX009 (ip), vehicle: Klucel (hydroxypropylcellulose) (HPC).
Where [12] appears, read: dose: 50.0 mg/kg/injection, schedule: Q01DX009 (ip), vehicle: Klucel (hydroxypropylcellulose) (HPC).

In the case of `COc1cc(C=Nc2cccc(Br)c2)ccc1N(CCCl)CCCl`, the T/C reads like this: (dose: 3.3 mg/kg/injection, schedule: Q01DX009 (ip), vehicle: saline with Tween-80) 154 % of control; (dose: 5.0 mg/kg/injection, schedule: Q01DX009 (ip), vehicle: saline with Tween-80) 200 % of control; (dose: 5.56 mg/kg/injection, schedule: Q01DX009 (ip), vehicle: saline with Tween-80) 209 % of control; (dose: 8.33 mg/kg/injection, schedule: Q01DX009 (ip), vehicle: saline with Tween-80) 186 % of control; (dose: 11.0 mg/kg/injection, schedule: Q04DX003 (ip), vehicle: other) 165 % of control; under setting [1], 204 % of control and 227 % of control. In addition, the T/C is 184 % of control (dose: 16.5 mg/kg/injection, schedule: Q04DX003 (ip), vehicle: other); 186 % of control (dose: 18.7 mg/kg/injection, schedule: Q01DX009 (ip), vehicle: saline with Tween-80); 166 % of control under setting [2]; 230 % of control (dose: 25.0 mg/kg/injection, schedule: Q04DX003 (ip), vehicle: other); 107 % of control (dose: 37.5 mg/kg/injection, schedule: Q04DX003 (ip), vehicle: other).

Turning to `C=C1C(=O)OC2C1CC/C(C)=C/CCC1(C)OC21` (stereo unspecified), the T/C was 106 % of control (dose: 8.75 mg/kg/injection, schedule: Q01DX009 (ip), vehicle: Klucel (hydroxypropylcellulose) (HPC)) and 106 % of control (dose: 17.5 mg/kg/injection, schedule: Q01DX009 (ip), vehicle: Klucel (hydroxypropylcellulose) (HPC)).

As to `CC1=NN(C2=NS(=O)(=O)c3ccccc3N2C)C(=O)C1`, the T/C is, setting by setting: under setting [3], 86 % of control; under setting [4], 90 % of control; under setting [5], 90 % of control.

With `CC1(C)CC(O)C2OC2C1` (stereo unspecified), the T/C is 101 % of control under setting [6], 108 % of control under setting [7] and 106 % of control under setting [8].

For the molecule `CC1CCCC2CC3CCCCC3OCN12` (stereo unspecified), the T/C (dose: 100.0 mg/kg/injection, schedule: Q04DX003 (ip), vehicle: saline) is 109 % of control; the T/C (dose: 200.0 mg/kg/injection, schedule: Q04DX003 (ip), vehicle: saline) was 104 % of control; the T/C (dose: 400.0 mg/kg/injection, schedule: Q04DX003 (ip), vehicle: saline) is 104 % of control.

As for `CC(C)(C)OC(=O)N[C@@H](CNOCc1ccccc1)C(N)=O`, the T/C runs as follows: under setting [6], 92 % of control; under setting [7], 92 % of control; under setting [8], 86 % of control.

Regarding `CC(=O)NC(Cn1cc(C(N)=O)ccc1=N)C(=O)O` (stereo unspecified), the T/C is, setting by setting: (dose: 1.56 mg/kg/injection, schedule: Q01DX005 (ip), vehicle: Klucel (hydroxypropylcellulose) (HPC)) 102 % of control; (dose: 3.12 mg/kg/injection, schedule: Q01DX005 (ip), vehicle: Klucel (hydroxypropylcellulose) (HPC)) 108 % of control and 114 % of control; (dose: 6.25 mg/kg/injection, schedule: Q01DX005 (ip), vehicle: Klucel (hydroxypropylcellulose) (HPC)) 115 % of control and 122 % of control; (dose: 12.5 mg/kg/injection, schedule: Q01DX005 (ip), vehicle: Klucel (hydroxypropylcellulose) (HPC)) 121 % of control.

Take `CN(C)c1ccc2ccc(N(C)C)nc2c1`: the T/C reads like this: under setting [1], 93 % of control; under setting [2], 117 % of control; under setting [9], 89 % of control and 95 % of control.

As for `O=C(Nc1ccc(Br)cc1)c1ccc(Cl)c(Cl)c1`, the T/C is, setting by setting: under setting [10], 116 % of control; under setting [11], 119 % of control; (dose: 400.0 mg/kg/injection, schedule: Q01DX009 (ip), vehicle: Klucel (hydroxypropylcellulose) (HPC)) 117 % of control.

Regarding `COc1ccc(OCCCBr)c(Br)c1`, the T/C by setting is: (dose: 50.0 mg/kg/injection, schedule: Q01DX005 (ip), vehicle: Klucel (hydroxypropylcellulose) (HPC)) 101 % of control; (dose: 100.0 mg/kg/injection, schedule: Q01DX005 (ip), vehicle: Klucel (hydroxypropylcellulose) (HPC)) 97 % of control; (dose: 200.0 mg/kg/injection, schedule: Q01DX005 (ip), vehicle: Klucel (hydroxypropylcellulose) (HPC)) 104 % of control.

Consider `O=c1cc[nH]c(=O)n1C1OC(CO)C(O)C1O` (stereo unspecified), for which the T/C runs as follows: (dose: 50.0 mg/kg/injection, schedule: Q01DX005 (ip), vehicle: saline) 108 % of control; (dose: 100.0 mg/kg/injection, schedule: Q01DX005 (ip), vehicle: saline) 99 % of control; (dose: 200.0 mg/kg/injection, schedule: Q01DX005 (ip), vehicle: saline) 102 % of control; (dose: 400.0 mg/kg/injection, schedule: Q01DX005 (ip), vehicle: saline) 98 % of control.

`CCCC1(CC(=O)O)OCCc2c1[nH]c1ccccc21` (stereo unspecified): the T/C under setting [12] was 102 % of control and the T/C under setting [10] is 108 % of control.

For `CCCCOP(=O)(O)SP(=O)(O)OCCCC`, the T/C reads like this: (dose: 100.0 mg/kg/injection, schedule: Q01DX001 (ip), vehicle: Klucel (hydroxypropylcellulose) (HPC)) 103 % of control; (dose: 100.0 mg/kg/injection, schedule: Q01DX001 (ip), vehicle: saline) 103 % of control and 106 % of control and 98 % of control; (dose: 100.0 mg/kg/injection, schedule: Q04DX003 (ip), vehicle: suspension in saline) 105 % of control; (dose: 200.0 mg/kg/injection, schedule: Q01DX001 (ip), vehicle: Klucel (hydroxypropylcellulose) (HPC)) 119 % of control; (dose: 200.0 mg/kg/injection, schedule: Q01DX001 (ip), vehicle: saline) 106 % of control and 98 % of control and 103 % of control; (dose: 200.0 mg/kg/injection, schedule: Q04DX003 (ip), vehicle: suspension in saline) 105 % of control. The T/C reads like this: (dose: 400.0 mg/kg/injection, schedule: Q01DX001 (ip), vehicle: Klucel (hydroxypropylcellulose) (HPC)) 104 % of control; (dose: 400.0 mg/kg/injection, schedule: Q01DX001 (ip), vehicle: saline) 106 % of control and 103 % of control and 94 % of control; (dose: 400.0 mg/kg/injection, schedule: Q04DX003 (ip), vehicle: suspension in saline) 110 % of control.

On to `CCOC(CNCc1cc(C)c2[nH]c3ccccc3c2c1C)OCC`, for which the T/C under setting [6] is 100 % of control, the T/C under setting [7] was 102 % of control and the T/C under setting [8] was 110 % of control.

`CCn1c2ccccc2n2c(=O)c(Cl)c(C)c(C#N)c12`: the T/C was 100 % of control under setting [3], 98 % of control under setting [4] and 97 % of control under setting [5].

`COc1ccccc1/C=C/C1=C(C)CCC(c2ccccc2OC)C1C` (stereo unspecified): the T/C runs as follows: under setting [6], 90 % of control; under setting [7], 89 % of control; under setting [8], 89 % of control.

In the case of `C[CH2][Sn]([CH2]C)([S]CCS(=O)(=O)O)[S]CCS(=O)(=O)O` (tested in a mixture with another compound), the T/C (dose: 7.5 mg/kg/injection, schedule: Q01DX005 (ip), vehicle: saline) is 123 % of control.

On to `CN1C(=O)C(n2[nH]c(=O)n(-c3ccccc3)c2=O)C(=O)N(C)C1=O`, for which the T/C by setting is: under setting [12], 99 % of control; under setting [10], 89 % of control; under setting [11], 103 % of control.

For `Nc1ccc(S(=O)(=O)Nc2cccc3[nH]c(=O)oc23)cc1`, the T/C is 101 % of control (dose: 50.0 mg/kg/injection, schedule: Q04DX002 (ip), vehicle: Klucel (hydroxypropylcellulose) (HPC)); 99 % of control (dose: 100.0 mg/kg/injection, schedule: Q04DX002 (ip), vehicle: Klucel (hydroxypropylcellulose) (HPC)); 100 % of control (dose: 200.0 mg/kg/injection, schedule: Q04DX002 (ip), vehicle: Klucel (hydroxypropylcellulose) (HPC)).

As to `CCOCc1cnc(C)nc1N`, the T/C was 110 % of control under setting [9]; 120 % of control (dose: 100.0 mg/kg/injection, schedule: Q01DX009 (ip), vehicle: saline with Tween-80); 110 % of control (dose: 200.0 mg/kg/injection, schedule: Q01DX009 (ip), vehicle: saline with Tween-80).

Regarding `NNC1=Nc2ccccc2N=C2CCSCC21` (stereo unspecified), the T/C runs as follows: under setting [12], 97 % of control; under setting [10], 112 % of control; under setting [11], 108 % of control.

For the molecule `COc1cc(/C=N\NC(=O)OC(C)(C)C)cc(OC)c1OC`, the T/C was 100 % of control (dose: 50.0 mg/kg/injection, schedule: Q04DX003 (ip), vehicle: saline with Tween-80); 91 % of control (dose: 100.0 mg/kg/injection, schedule: Q04DX003 (ip), vehicle: saline with Tween-80); 91 % of control (dose: 200.0 mg/kg/injection, schedule: Q04DX003 (ip), vehicle: saline with Tween-80).

As for `CCCCC(Nc1nncs1)Nc1nncs1`, the T/C runs as follows: under setting [3], 90 % of control; under setting [4], 102 % of control; under setting [5], 96 % of control.
